Patent US20120088730A1, “USE OF ANGIOTENSIN CONVERTING ENZYME (ACE) DOMAIN SPECIFIC INHIBITORS TO INHIBIT OR ENHANCE CYTOKINE PRODUCTION AND ALTER IMMUNE RESPONSE” (CEDARS-SINAI MEDICAL CENTER, priority 2009, published 2012)
Ends that are not written are not given here.

Assays:
[1] = cited from earlier work
ACE C-domain = target: T1, ACE C-domain (Homo sapiens, UniProt P12821); conditions: lower for C-domain; cited from earlier work
T1 construct: with a dissociation constant more than 3 orders of magnitude lower for the ACE C-domain than the N-domain
T1 sequence (P12821 643-1222 limits assumed): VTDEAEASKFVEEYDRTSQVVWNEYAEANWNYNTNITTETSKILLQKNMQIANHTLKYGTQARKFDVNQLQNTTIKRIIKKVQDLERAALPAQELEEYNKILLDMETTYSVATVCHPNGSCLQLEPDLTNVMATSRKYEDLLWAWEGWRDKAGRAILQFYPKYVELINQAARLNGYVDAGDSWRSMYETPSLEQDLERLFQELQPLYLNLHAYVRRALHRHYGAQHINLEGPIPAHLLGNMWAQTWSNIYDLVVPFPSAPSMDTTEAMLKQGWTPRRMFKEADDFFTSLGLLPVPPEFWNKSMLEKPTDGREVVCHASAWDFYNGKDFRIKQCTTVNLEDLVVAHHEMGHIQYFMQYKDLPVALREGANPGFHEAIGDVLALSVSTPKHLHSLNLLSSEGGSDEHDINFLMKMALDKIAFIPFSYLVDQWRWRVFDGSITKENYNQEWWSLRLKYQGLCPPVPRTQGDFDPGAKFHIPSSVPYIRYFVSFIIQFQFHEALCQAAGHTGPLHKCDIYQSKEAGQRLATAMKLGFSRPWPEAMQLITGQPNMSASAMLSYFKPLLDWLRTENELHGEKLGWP

cytokine expression = cytokine expression with ACE inhibitor, ACE7 (N-terminus KO) vs wild type (FIG. 11); assay type: cell-based, mouse; conditions: ACE7 (N-terminus KO) and wild type
Method: (§1) To obtain large numbers of macrophages, N-KO, C-KO and WT mice were injected intraperitoneally with thioglycolate. After four days, cells were collected, washed and counted. Aliquots of 1×10^6 cells were adhered in 24 well plates. After 2 hrs, non-adherent cells were removed and the plates were visually evaluated to verify that wells contained nearly identical numbers of adherent cells. Media containing 1 ug/ml of LPS (a model activator of macrophages) was then added. After 24 hrs, supernatants were collected and the concentrations of TNF-α and IL-12p40 (one of the 2 proteins comprising IL-12) were determined by ELISA (eBioscience). However, there was a marked difference in cytokine expression profile; macrophages derived from N-KO mice producing far more TNF- a and IL-12p40 than either C-KO or WT mice (p values for TNF-α: N-KO vs. C-KO or WT, p<0.001; p values for IL12p40: N-KO vs. C-KO or WT, p<0.02). Further, there was a clear trend of macrophages from C-KO mice producing less cytokines than wild-type cells (TNF- a: C-KO vs. WT, p<0.07; IL12p40: C-KO vs. WT, p<0.02). Thus, in the absence of ACE N-terminal catalytic activity, TNF-α and IL-12 cytokine expression was increased. In the absence of C-terminal catalytic activity, there is a strong reduction of production of these cytokines. […]

TNF = TNF with AT1R inhibitor, ACE7 (N-terminus KO) vs wild type (FIG. 12); assay type: cell-based, mouse; conditions: ACE7 (N-terminus KO) and wild type
Method: FIG. 12 depicts, in accordance with an embodiment of the present invention, AT1R inhibitor losartan can lower TNF, but cannot eliminate the difference between ACE7 (N-terminus KO) and wild type.
as §1, with “increased.” for “increased. In the absence of C-terminal catalytic activity, there is a strong reduction of production of these cytokines.”

[2] = target: AcSDAcKP (synthetic ACE substrate); experiment: cell-based or functional assay
[3] = target: Hip-His-Leu (HHL) (synthetic ACE substrate); experiment: cell-based or functional assay
cardiac fibroblasts = conditions: cited from earlier work
Smad2 = conditions: cited from earlier work
macrophages = conditions: cited from earlier work
[4] = test system: angiotensin II-induced hypertension; conditions: secondary to angiotensin II-induced hypertension; cited from earlier work
[5] = test system: aldosterone-salt hypertension; conditions: cited from earlier work
[6] = test system: 2-kidney, 1-clip hypertensive rats; conditions: osmotic mini-pump; cited from earlier work

Which effectiveness in mice ([1]; mice) does the source give for `O=C(NC(Cc1ccccc1)P(=O)(O)C1CCCC1C(=O)NC(Cc1c[nH]c2ccccc12)C(=O)O)OCc1ccccc1` (centres unmarked) [RXPA 380] here?
The effectiveness in mice was “effective”.

And the stability in vivo ([1]; mouse, in vivo)?
The stability in vivo was “stable”.

What about the “dissociation constant for the ACE C-domain relative to the N-domain” value (ACE C-domain) of the same compound?
Its value is “more than 3 orders of magnitude”.

Which cytokine expression (cytokine expression) does the source give for `NCCCC[C@H](N[C@@H](CCc1ccccc1)C(=O)O)C(=O)N1CCC[C@H]1C(=O)O` [lisinopril] here?
Its cytokine expression is “can lower cytokine expression”.

With `CCCCc1nc(Cl)c(CO)n1Cc1ccc(-c2ccccc2-c2nn[nH]n2)cc1` [losartan] as the compound, how does the TNF (TNF) read?
Its TNF is “can lower TNF”.

With “ACE of ACE 7/7 (N-KO) mice: mouse angiotensin converting enzyme with the N-terminal catalytic site inactivated (HEMGH motif converted to KEMGK) (from UniProt P09470 35-1237)” as the compound, how does the catalytic activity of plasma (cleavage efficiency against wild-type mice) (% of wild-type efficiency) [2] read?
Its catalytic activity of plasma (cleavage efficiency against wild-type mice) (% of wild-type efficiency) is 3.

With “ACE of ACE 13/13 (C-KO) mice: mouse angiotensin converting enzyme with the C-terminal catalytic site inactivated (histidines of HEMGH mutated to lysines) (from UniProt P09470 35-1237)” as the compound, how does the catalytic activity of plasma (hydrolysis efficiency against wild-type mice) (% of wild-type efficiency) [3] read?
The catalytic activity of plasma (hydrolysis efficiency against wild-type mice) (% of wild-type efficiency) was 18.

What does the source list for “Acetyl-SerAspLysPro (Ac-SDKP) [AcSDKP, tetrapeptide cleaved from thymosin-β4 by prolyl oligopeptidase]”?
growth of cardiac fibroblasts (cardiac fibroblasts): inhibits the growth of cardiac fibroblasts; TGF-β1 stimulated phosphorylation of Smad2 (Smad2): inhibits; macrophage production of TNF (macrophages): reducing macrophage production of TNF; aortic fibrosis [4]: reduced aortic fibrosis; collagen deposition and cell proliferation in the heart and kidney [5]: prevented increased collagen deposition and cell proliferation; blood pressure [6]: no effect on blood pressure; development of fibrosis in the heart [6]: prevented the development of fibrosis in the heart
